{"source": "paper PMC10895678", "about": "(Journal of Medicinal Chemistry, 2024)", "key": {"[1]": {"system": "M. tuberculosis H37Rv", "assay": "Mycobacterial time kill experiments (total viable counts)", "format": "cell-based, Mycobacterium tuberculosis", "conditions": "29 μM, by day 10, to limit of detection (100 CFU mL^–1)"}, "[2]": {"system": "BCG pTIC6-fbpC", "format": "cell-based, Mycobacterium bovis BCG"}, "[3]": {"system": "BCG pTIC6-fbpB", "format": "cell-based, Mycobacterium bovis BCG"}, "[4]": {"system": "BCG pTIC6-fbpA", "format": "cell-based, Mycobacterium bovis BCG"}, "[5]": {"system": "M. bovis BCG", "assay": "microbe, parasite or virus in culture", "format": "cell-based, Mycobacterium bovis BCG"}, "[6]": {"system": "M. smegmatis", "assay": "MIC determination, resazurin end point assay, M. smegmatis", "format": "cell-based, Mycobacterium smegmatis"}}, "data": [{"compound": "NNC(=O)c1ccncc1", "note": "[Isoniazid, reference compound]", "values": [{"measurement": "reduction of total viable count", "setting": "[1]", "result": "> 4.52 ± 0.60", "unit": "log10 CFU mL^–1"}]}, {"compound": "O=c1c2ccccc2[se]n1-c1ccccc1", "note": "[Ebselen, reference compound]", "values": [{"measurement": "BCG pTIC6-fbpC MIC", "setting": "[2]", "result": 98, "unit": "µM"}, {"measurement": "increase in MIC upon overexpression of FbpC", "setting": "[2]", "result": "three-fold increase"}, {"measurement": "BCG pTIC6-fbpB MIC", "setting": "[3]", "result": 90, "unit": "µM"}, {"measurement": "increase in MIC upon overexpression of FbpB", "setting": "[3]", "result": "three-fold increase"}, {"measurement": "BCG pTIC6-fbpA MIC", "setting": "[4]", "result": 28, "unit": "µM"}, {"measurement": "shift in MIC upon overexpression of FbpA", "setting": "[4]", "result": "No shift in MIC"}]}, {"compound": "(rac)-1-(((2,4-cis)-1-(2-bromobenzyl)-4-phenylazetidin-2-yl)methyl)-4-(4-(trifluoromethyl)phenyl)piperidine [BGAz-016]", "values": [{"measurement": "BCG MIC99", "setting": "[5]; resazurin end point assay, modified Gompertz function, three biological replicates", "result": 60, "unit": "µM"}, {"measurement": "MIC50 BCG", "setting": "[5]; supplementary MIC data file", "result": 48, "unit": "µM"}, {"measurement": "MIC99 BCG", "setting": "[5]; supplementary MIC data file", "result": 60, "unit": "µM"}, {"measurement": "MIC99", "setting": "[6]; resazurin end point assay, modified Gompertz function, three biological replicates, read-out: M. smeg. MIC99", "result": 100, "unit": "µM"}, {"measurement": "MIC50 smegmatis", "setting": "[6]; supplementary MIC data file", "result": 34, "unit": "µM"}, {"measurement": "MIC99 smegmatis", "setting": "[6]; supplementary MIC data file", "result": "> 100", "unit": "µM"}]}]}
